Reference: publication PMC8252455, “Prediction of a clinically effective dose of THY1773, a novel V 1B receptor antagonist, based on preclinical data” (Biopharmaceutics & Drug Disposition, 2021)

Legend:
[1] = Parallel artificial membrane permeability assay (PAMPA); assay type: in vitro ADME
Method: The membrane permeability of THY1773 was measured using a parallel artificial membrane permeability assay (PAMPA) Evolution instrument (Pion Inc.). A “sandwich” plate consisting of a donor bottom plate with stir bars and an acceptor filter plate was used for the experiment. A donor plate was prepared by the addition of THY1773 to diluted PRISMA HT at pH 6.2 (final concentration of 12.5 μmol/L). An acceptor plate was coated with GIT‐0 lipid solution, followed by the addition of acceptor sink buffer (pH 7.4). After incubation for 4 h at room temperature, the concentrations of THY1773 in the reference, donor, and acceptor solutions were measured with a UV plate reader. The apparent permeability (Papp) was calculated using the PAMPA Evolution software (version 3.1; Pion Inc.).

[2] = Metabolic stability in rat liver microsomes; assay type: in vitro ADME; settings: 1 μmol/L
Method: The oxidative metabolism of THY1773 was evaluated in rat and dog liver microsomes. THY1773 (1 μmol/L) was incubated with pooled liver microsomes (0.25 mg protein/ml) in sodium–potassium phosphate buffer (pH 7.4) consisting of 100 mmol/L sodium phosphate, 100 mmol/L potassium chloride, 2.5 mmol/L magnesium chloride (MgCl2), 1.5 mmol/L glucose‐6‐phosphate (G‐6‐P), and 0.18 units/ml G‐6‐P dehydrogenase (G‐6‐PDH). The reactions were initiated by the addition of β‐nicotinamide–adenine dinucleotide phosphate, oxidized form (NADP^+, 0.16 mmol/L), and incubated for 10, 20, 30, 40, 50, and 60 min. […] The intrinsic clearance (CLint) was calculated by the substrate depletion method described by Naritomi et al. (2001).
Since the CLliver was underestimated in rats and dogs from CLint in liver microsomes, the ratio of observed in vivo CLint and predicted CLint was calculated as the empirical scaling factor (ESF) for the extrapolation of CLliver from in vitro data. […] The total plasma clearance (CLtotal) was calculated by Equation (4): (4) CLtotal=QH×fu×(CLint/fu,mic)/QH+(fu/Rb)×(CLint/fu,mic)+CLrenal where QH is hepatic blood flow, fu is the free fraction in plasma, fu,mic is the fraction unbound in HLMs, Rb is blood‐to‐plasma ratio, and CLrenal is renal clearance. The fu,mic value was calculated using the Simcyp population based simulator (Version 16 R1; Simcyp Ltd.). […]

Prediction of human Vdss = experiment: Prediction of human Vdss
Source text: Human Vdss was also predicted by the two methods reported to be the best methods based on the prediction accuracy (Jones et al., 2011), which were Øie‐Tozer method (Obach et al., 1997) and rat–dog–human proportionality equation described (Wajima, Fukumura, Yano, & Oguma, 2003) by Equations (6) and (7), respectively: (6) Vdss[L/kg]=Vp×(1+RE/I)+Vp×fu×(Ve/Vp−RE/I)+Vr×fu/fu,t (7) log(Vdss,human)=0.07714×log(Vdss,rat)×log(Vdss,dog)+0.5147×log(Vdss,dog)+0.586 where fu,t is the fraction unbound in tissues, RE/I is the ratio of binding protein in the extracellular fluid to that in plasma, Ve, Vp, and Vr is the extracellular, plasma, and remaining fluid volume, respectively. Volumes and plasma protein levels were used as described by Obach et al. (1997).
The fold error of the difference between observed and predicted human PK parameters was calculated by dividing the predicted value by the observed value.

plasma ACTH = tested on: plasma ACTH; parameters: method as in Kamiya et al., 2020; settings: rats, oral, doses with >50% V1B occupancy; ref Kamiya et al., 2020; cited from earlier work
[3] = Physicochemical properties (Log P, pKa); settings: experimental data
Source text: TABLE 2 Human PBPK/RO model input parameters for THY1773 | column: Value

[4] = Plasma protein binding by equilibrium dialysis, human plasma; assay type: in vitro ADME; settings: PBPK input, experimental data
Method: The plasma protein binding of THY1773 in rats, dogs, and humans was evaluated by an equilibrium dialysis method using a 96‐well equilibrium dialysis plate (HTDialysis) with a 12–14 kDa cut‐off dialysis membrane. THY1773 was dissolved in dimethyl sulfoxide, and spiked with rat, dog, or human plasma at a final concentration of 300 ng/ml. An aliquot of plasma containing THY1773 and sodium phosphate buffer (pH 7.4) was added into the donor side and the receiver side of each designated well, respectively. After incubation for 6 h at a rate of 50 oscillation/min at 37°C in an air incubator, an aliquot of each side of each well was collected and mixed with acetonitrile/methanol (9:1, vol/vol) containing the IS. Each sample was centrifuged at 3974 × g for 10 min at 4°C to remove the precipitated proteins, and the resultant supernatants were subjected to LC‐MS/MS analysis. The protein binding (%) was calculated using the Boudinot formula (Boudinot & Jusko, 1984).

major CYP isoforms = experiment: In vitro CYP inhibition or induction potential; assay type: in vitro ADME; settings: data not shown
[5] = Blood-to-plasma ratio in rat whole blood; assay type: in vitro ADME; settings: 1 μmol/L
Method: (§1) The blood‐to‐plasma ratios of THY1773 were analyzed using pooled fresh whole blood (anticoagulant: EDTA‐2K) and control plasma separated from fresh whole blood in parallel from rats, dogs, and humans. Whole blood and control plasma containing 1 μmol/L THY1773 were incubated at 37°C for 30 min in a shaking water bath. The incubated whole blood was centrifuged at 2000 × g for 10 min at 4°C to obtain plasma. An aliquot of each plasma sample (i.e., isolated plasma from incubated whole blood and control plasma) was mixed with 8 volumes of acetonitrile/methanol (9:1, vol/vol) containing the IS. After centrifugation at 3974 × g for 10 min at 4°C, the supernatant was subjected to liquid chromatography/tandem mass spectrometry (LC‐MS/MS) analysis. The blood‐to‐plasma ratio was calculated by dividing the […].

[6] = Blood-to-plasma ratio in dog whole blood; assay type: in vitro ADME; settings: 1 μmol/L
Method: as §1

[7] = tested on: anterior pituitary V1B receptor; parameters: method as in Kamiya et al., 2020; settings: rats; ref Kamiya et al., 2020; cited from earlier work

In the case of `CC(C)NC(=O)Cn1c(-c2cccc(Cl)c2)nn(-c2ccc(CCN3CCOCC3)cc2)c1=O` [THY1773], the “Papp in PAMPA” value ([1]; donor pH 6.2, 12.5 μmol/L, 4 h, room temperature) is reported as 128.9 10^−6 cm/s, the “Permeability in the gut (assessment from PAMPA)” value ([1]; pH 6.2) is reported as “high permeability” and the “CLint in liver microsomes” value [2] is reported as 22.0 μL/min/mg protein. For the same molecule, the “Predicted human Vdss” value (Prediction of human Vdss; Rat–dog–human proportionality equation) was 1.38 L/kg, the “Predicted human Vdss” value (Prediction of human Vdss; Single species scaling (rat)) was 0.349 L/kg and the “Predicted human Vdss” value (Prediction of human Vdss; Øie‐Tozer method) was 0.404 L/kg. The “Effect on increase in plasma ACTH induced by CRF/desmopressin challenge” value (plasma ACTH) was “significantly inhibited”, the “Log P” value [3] was 3.17 and the pKa ([3]; monoprotic base) was 6.85. For the same molecule, the “Fraction unbound in plasma” value [4] was 0.017, the “In vitro inhibition or induction potential on major CYP isoforms” value (major CYP isoforms) was “did not have any apparent in vitro inhibition or induction potential” and the Blood-to-plasma ratio [5] was 0.822. The Blood-to-plasma ratio [6] was 0.846 and the “Occupancy of anterior pituitary V1B receptor after oral administration” value [7] was “dose‐dependently”.
